pIC50: −log10 of the molar value. Read-outs that look alike come from different tables or passages of the source.
Target: T1, human TRPM2 (Homo sapiens, UniProt O94759)
T1 construct: whole-cell patch clamp
Assay: whole-cell patch clamp, current inhibition
Type: cell-based

[1] = compound in intracellular (pipette) solution with 0.1 mM ADPR as activator, room temperature, pH 7.3 inside, 7.4 outside

T1 sequence (O94759 whole entry): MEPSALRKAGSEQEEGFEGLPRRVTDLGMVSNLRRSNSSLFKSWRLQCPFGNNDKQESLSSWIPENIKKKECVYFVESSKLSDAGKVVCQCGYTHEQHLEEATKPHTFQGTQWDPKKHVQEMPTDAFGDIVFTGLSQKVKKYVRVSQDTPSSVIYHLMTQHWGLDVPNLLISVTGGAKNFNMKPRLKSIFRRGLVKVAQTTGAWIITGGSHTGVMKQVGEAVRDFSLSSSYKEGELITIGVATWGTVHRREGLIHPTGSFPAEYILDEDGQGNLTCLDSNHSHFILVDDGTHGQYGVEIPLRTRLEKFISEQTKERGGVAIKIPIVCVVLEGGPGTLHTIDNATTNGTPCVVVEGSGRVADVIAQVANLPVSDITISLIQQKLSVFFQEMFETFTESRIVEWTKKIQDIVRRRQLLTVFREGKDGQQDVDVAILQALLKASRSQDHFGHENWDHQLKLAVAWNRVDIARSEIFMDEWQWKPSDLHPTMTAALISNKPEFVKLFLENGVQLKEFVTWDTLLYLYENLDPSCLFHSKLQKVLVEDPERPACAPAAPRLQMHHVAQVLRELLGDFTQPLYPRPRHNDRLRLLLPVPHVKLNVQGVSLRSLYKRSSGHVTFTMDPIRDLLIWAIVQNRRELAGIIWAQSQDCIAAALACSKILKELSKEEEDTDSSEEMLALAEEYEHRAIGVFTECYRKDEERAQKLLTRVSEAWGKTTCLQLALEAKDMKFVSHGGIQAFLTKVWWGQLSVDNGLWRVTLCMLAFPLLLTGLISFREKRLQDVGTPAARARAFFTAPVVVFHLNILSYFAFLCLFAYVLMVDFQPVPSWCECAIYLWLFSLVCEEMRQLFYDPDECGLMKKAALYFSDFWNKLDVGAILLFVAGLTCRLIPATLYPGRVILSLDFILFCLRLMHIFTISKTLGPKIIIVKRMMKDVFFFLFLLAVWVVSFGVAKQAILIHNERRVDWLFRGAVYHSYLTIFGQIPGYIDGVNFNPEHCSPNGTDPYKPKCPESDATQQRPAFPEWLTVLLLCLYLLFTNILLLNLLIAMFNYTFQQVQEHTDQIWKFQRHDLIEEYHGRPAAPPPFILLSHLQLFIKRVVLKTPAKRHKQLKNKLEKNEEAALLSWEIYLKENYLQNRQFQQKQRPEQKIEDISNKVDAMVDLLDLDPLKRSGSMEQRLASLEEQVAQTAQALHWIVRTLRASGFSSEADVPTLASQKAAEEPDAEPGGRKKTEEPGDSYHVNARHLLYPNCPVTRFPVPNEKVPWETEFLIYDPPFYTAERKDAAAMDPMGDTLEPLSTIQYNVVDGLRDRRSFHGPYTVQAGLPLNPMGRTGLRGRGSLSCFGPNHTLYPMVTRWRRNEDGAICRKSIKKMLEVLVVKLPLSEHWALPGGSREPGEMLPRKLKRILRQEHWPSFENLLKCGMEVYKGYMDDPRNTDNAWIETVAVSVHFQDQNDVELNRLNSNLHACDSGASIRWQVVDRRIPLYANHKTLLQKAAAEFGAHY

Compound | pIC50 | other results
COC1O[C@H](COP(=O)(O)CP(=O)(O)OC[C@H]2O[C@@H](n3cnc4c(N)ncnc43)[C@@H]3OC(C)(C)O[C@@H]32)[C@H]2OC(C)(C)O[C@@H]12 (stereo partly drawn) [7a, 1″‐O‐methyl‐2″,2′,3″,3′‐O‐isopropylidene‐5′‐methylenediphoribose adenosine] | < 4.00 | –
COC1O[C@H](COP(=O)(O)CP(=O)(O)OC[C@H]2O[C@@H](n3cnc4c(N)nc(Cl)nc43)[C@@H]3OC(C)(C)O[C@@H]32)[C@H]2OC(C)(C)O[C@@H]12 (stereo partly drawn) [7b] | < 4.00 | –
COC1O[C@H](COP(=O)(O)CP(=O)(O)OC[C@H]2O[C@@H](n3cnc4c(N)nc(Br)nc43)[C@@H]3OC(C)(C)O[C@@H]32)[C@H]2OC(C)(C)O[C@@H]12 (stereo partly drawn) [7c] | < 4.00 | –
COc1nc(N)c2ncn([C@@H]3O[C@H](COP(=O)(O)CP(=O)(O)OC[C@H]4OC(OC)[C@@H]5OC(C)(C)O[C@H]45)[C@H]4OC(C)(C)O[C@H]43)c2n1 (stereo partly drawn) [7d] | < 4.00 | –
COC1O[C@H](COP(=O)(O)CP(=O)(O)OC[C@H]2O[C@@H](n3cnc4c(N)nc(N)nc43)[C@@H]3OC(C)(C)O[C@@H]32)[C@H]2OC(C)(C)O[C@@H]12 (stereo partly drawn) [7e] | < 4.00 | –
CNc1ncnc2c1ncn2[C@@H]1O[C@H](COP(=O)(O)CP(=O)(O)OC[C@H]2OC(OC)[C@@H]3OC(C)(C)O[C@H]23)[C@H]2OC(C)(C)O[C@H]21 (stereo partly drawn) [7f] | < 4.00 | –
COC1O[C@H](COP(=O)(O)CP(=O)(O)OC[C@H]2O[C@@H](n3cnc4c(N(C)C)ncnc43)[C@@H]3OC(C)(C)O[C@@H]32)[C@H]2OC(C)(C)O[C@@H]12 (stereo partly drawn) [7g] | < 4.00 | –
COC1O[C@H](COP(=O)(O)C(F)(F)P(=O)(O)OC[C@H]2O[C@@H](n3cnc4c(N)ncnc43)[C@@H]3OC(C)(C)O[C@@H]32)[C@H]2OC(C)(C)O[C@@H]12 (stereo partly drawn) [7h] | < 4.00 | –
COC1O[C@H](COP(=O)(O)C(F)(F)P(=O)(O)OC[C@H]2O[C@@H](n3cnc4c(N)nc(Cl)nc43)[C@@H]3OC(C)(C)O[C@@H]32)[C@H]2OC(C)(C)O[C@@H]12 (stereo partly drawn) [7i] | 5.24 | –
COc1nc(N)c2ncn([C@@H]3O[C@H](COP(=O)(O)C(F)(F)P(=O)(O)OC[C@H]4OC(OC)[C@@H]5OC(C)(C)O[C@H]45)[C@H]4OC(C)(C)O[C@H]43)c2n1 (stereo partly drawn) [7j] | < 4.00 | –
COC1O[C@H](COP(=O)(O)C(F)(F)P(=O)(O)OC[C@H]2O[C@@H](n3cnc4c(N)nc(N)nc43)[C@@H]3OC(C)(C)O[C@@H]32)[C@H]2OC(C)(C)O[C@@H]12 (stereo partly drawn) [7k] | < 4.00 | –
COC1O[C@H](COP(=O)(O)OP(=O)(O)OC[C@H]2O[C@@H](n3cnc4c(N)ncnc43)[C@@H]3OC(C)(C)O[C@@H]32)[C@H]2OC(C)(C)O[C@@H]12 (stereo partly drawn) [7l] | < 4.00 | –
COC1O[C@H](COP(=O)(O)CP(=O)(O)OC[C@H]2O[C@@H](n3cnc4c(N)nc(I)nc43)[C@@H]3OC(C)(C)O[C@@H]32)[C@H]2OC(C)(C)O[C@@H]12 (stereo partly drawn) [7m] | < 4.00 | –
COC1O[C@H](COP(=O)(O)C(F)(F)P(=O)(O)OC[C@H]2O[C@@H](n3cnc4c(N)nc(Br)nc43)[C@@H]3OC(C)(C)O[C@@H]32)[C@H]2OC(C)(C)O[C@@H]12 (stereo partly drawn) [7n, 1″‐O‐methyl‐2″,2′,3″,3′‐O‐isopropylidene‐5′‐difluoromethylenediphosphoribose‐2‐bromoadenosine] | < 4.00 | –
COC1O[C@H](COP(=O)(O)C(F)(F)P(=O)(O)OC[C@H]2O[C@@H](n3cnc4c(N)nc(I)nc43)[C@@H]3OC(C)(C)O[C@@H]32)[C@H]2OC(C)(C)O[C@@H]12 (stereo partly drawn) [7o] | < 4.00 | –
COC1O[C@H](COP(=O)(O)CP(=O)(O)OC[C@H]2O[C@@H](n3cnc4c(N)ncnc43)[C@H](O)[C@@H]2O)[C@H]2OC(C)(C)O[C@@H]12 (stereo partly drawn) [8a, 1″‐O‐methyl‐2″,3″‐O‐isopropylidene‐5′‐methylenediphosphoribose adenosine] | 5.27 | –
COC1O[C@H](COP(=O)(O)CP(=O)(O)OC[C@H]2O[C@@H](n3cnc4c(N)nc(Cl)nc43)[C@H](O)[C@@H]2O)[C@H]2OC(C)(C)O[C@@H]12 (stereo partly drawn) [8b] | < 4.00 | –
COC1O[C@H](COP(=O)(O)C(F)(F)P(=O)(O)OC[C@H]2O[C@@H](n3cnc4c(N)nc(Cl)nc43)[C@H](O)[C@@H]2O)[C@H]2OC(C)(C)O[C@@H]12 (stereo partly drawn) [8c] | < 4.00 | –
COC1O[C@H](COP(=O)(O)C(F)(F)P(=O)(O)OC[C@H]2O[C@@H](n3cnc4c(N)nc(Br)nc43)[C@H](O)[C@@H]2O)[C@H]2OC(C)(C)O[C@@H]12 (stereo partly drawn) [8d, 1″‐O‐methyl‐2″,3″‐O‐isopropylidene‐5′‐difluoromethylenediphosphoribose‐2‐bromoadenosine] | < 4.00 | –
COC1O[C@H](COP(=O)(O)C(F)(F)P(=O)(O)OC[C@H]2O[C@@H](n3cnc4c(N)nc(I)nc43)[C@H](O)[C@@H]2O)[C@H]2OC(C)(C)O[C@@H]12 (stereo partly drawn) [8e] | < 4.00 | –

Compound | pIC50 | other results
COC1O[C@H](COP(=O)(O)C(F)(F)P(=O)(O)OC[C@H]2O[C@@H](n3cnc4c(N)nc(Br)nc43)[C@H](O)[C@@H]2O)[C@@H](O)[C@H]1O (stereo partly drawn) [9a, 1″‐O‐methyl‐difluoromethylenediphosphoribose‐2‐bromoadenosine] | < 4.00 | –
COC1O[C@H](COP(=O)(O)C(F)(F)P(=O)(O)OC[C@H]2O[C@@H](n3cnc4c(N)nc(I)nc43)[C@H](O)[C@@H]2O)[C@@H](O)[C@H]1O (stereo partly drawn) [9b] | < 4.00 | –
Nc1ncnc2c1ncn2[C@@H]1O[C@H](COP(=O)(O)CP(=O)(O)OC[C@H]2OC(O)[C@H](O)[C@@H]2O)[C@@H](O)[C@H]1O (stereo partly drawn) [10a, methylenediphosphoribose adenosine] | – | pIC50 [1]: < 4.00
Nc1nc(Cl)nc2c1ncn2[C@@H]1O[C@H](COP(=O)(O)CP(=O)(O)OC[C@H]2OC(O)[C@H](O)[C@@H]2O)[C@@H](O)[C@H]1O (stereo partly drawn) [10b] | < 4.00 | –
Nc1nc(Br)nc2c1ncn2[C@@H]1O[C@H](COP(=O)(O)CP(=O)(O)OC[C@H]2OC(O)[C@H](O)[C@@H]2O)[C@@H](O)[C@H]1O (stereo partly drawn) [10c] | < 4.00 | –
COc1nc(N)c2ncn([C@@H]3O[C@H](COP(=O)(O)CP(=O)(O)OC[C@H]4OC(O)[C@H](O)[C@@H]4O)[C@@H](O)[C@H]3O)c2n1 (stereo partly drawn) [10d] | < 4.00 | –
Nc1nc(N)c2ncn([C@@H]3O[C@H](COP(=O)(O)CP(=O)(O)OC[C@H]4OC(O)[C@H](O)[C@@H]4O)[C@@H](O)[C@H]3O)c2n1 (stereo partly drawn) [10e] | < 4.00 | –
CNc1ncnc2c1ncn2[C@@H]1O[C@H](COP(=O)(O)CP(=O)(O)OC[C@H]2OC(O)[C@H](O)[C@@H]2O)[C@@H](O)[C@H]1O (stereo partly drawn) [10f] | < 4.00 | –
CN(C)c1ncnc2c1ncn2[C@@H]1O[C@H](COP(=O)(O)CP(=O)(O)OC[C@H]2OC(O)[C@H](O)[C@@H]2O)[C@@H](O)[C@H]1O (stereo partly drawn) [10g] | < 4.00 | –
Nc1ncnc2c1ncn2[C@@H]1O[C@H](COP(=O)(O)C(F)(F)P(=O)(O)OC[C@H]2OC(O)[C@H](O)[C@@H]2O)[C@@H](O)[C@H]1O (stereo partly drawn) [10h] | < 4.00 | –
Nc1nc(Cl)nc2c1ncn2[C@@H]1O[C@H](COP(=O)(O)C(F)(F)P(=O)(O)OC[C@H]2OC(O)[C@H](O)[C@@H]2O)[C@@H](O)[C@H]1O (stereo partly drawn) [10i] | < 4.00 | –
COc1nc(N)c2ncn([C@@H]3O[C@H](COP(=O)(O)C(F)(F)P(=O)(O)OC[C@H]4OC(O)[C@H](O)[C@@H]4O)[C@@H](O)[C@H]3O)c2n1 (stereo partly drawn) [10j] | < 4.00 | –
Nc1nc(N)c2ncn([C@@H]3O[C@H](COP(=O)(O)C(F)(F)P(=O)(O)OC[C@H]4OC(O)[C@H](O)[C@@H]4O)[C@@H](O)[C@H]3O)c2n1 (stereo partly drawn) [10k] | < 4.00 | –
Nc1ncnc2c1ncn2[C@@H]1O[C@H](COP(=O)(O)OP(=O)(O)OC[C@H]2OC(O)[C@H](O)[C@@H]2O)[C@@H](O)[C@H]1O (stereo partly drawn) [10l] | – | pIC50 (compound in intracellular solution with 0.1 mM ADPR, drawn structure is ADPR itself, the channel activator): < 4.00
Nc1nc(I)nc2c1ncn2[C@@H]1O[C@H](COP(=O)(O)CP(=O)(O)OC[C@H]2OC(O)[C@H](O)[C@@H]2O)[C@@H](O)[C@H]1O (stereo partly drawn) [10m] | < 4.00 | –
Nc1nc(Br)nc2c1ncn2[C@@H]1O[C@H](COP(=O)(O)C(F)(F)P(=O)(O)OC[C@H]2OC(O)[C@H](O)[C@@H]2O)[C@@H](O)[C@H]1O (stereo partly drawn) [10n, difluoromethylenediphosphoribose‐2‐bromoadenosine] | – | pIC50 [1]: < 4.00
Nc1nc(I)nc2c1ncn2[C@@H]1O[C@H](COP(=O)(O)C(F)(F)P(=O)(O)OC[C@H]2OC(O)[C@H](O)[C@@H]2O)[C@@H](O)[C@H]1O (stereo partly drawn) [10o] | < 4.00 | –
COC1O[C@H](COP(=O)(O)CP(=O)(O)OC[C@H]2O[C@@H](n3cnc4c(N)ncnc43)[C@H](OC)[C@@H]2O)[C@H]2OC(C)(C)O[C@@H]12 (stereo partly drawn) [compound 13, 1″‐O‐methyl‐2″,3″‐O‐isopropylidene‐2′‐methoxy‐5′‐methylenediphoribose adenosine] | < 4.00 | –
CO[C@@H]1[C@H](O)[C@@H](COP(=O)(O)CP(=O)(O)OC[C@H]2OC(O)[C@H](O)[C@@H]2O)O[C@H]1n1cnc2c(N)ncnc21 (stereo partly drawn) [compound 14, 2′‐methoxy‐5′‐methylenediphoribose adenosine] | < 4.00 | –

From paper PMC5813235, “Selective inhibition of TRPM2 channel by two novel synthesized ADPR analogues” (Chemical Biology & Drug Design, 2017)
